# Results taken from paper PMC6409085, “Three odorant-binding proteins are involved in the behavioral response of Sogatella furcifera to rice plant volatiles” (PeerJ, 2019).
# “And” between values parts separate entries of the source, which are not always exact repeats. Equal entries are not always repeated.
# How the values were obtained:
# Assay in all cases: biochemical
# Assay type in all cases: binding
# [1] = target: SfurOBP11 (Sogatella furcifera, UniProt V5T6E3)
# Procedure: (§1) Thirty-six rice odorants ([He et al., 2014]; [Wang et al., 2017]) and 1-N-phenyl-naphthylamine (1-NPN) were purchased from Sigma-Aldrich (St Louis, MO, USA). These odorants and 1-NPN were dissolved in high-performance liquid chromatography (HPLC) purify grade methanol for 1.0 mM as work solution.
# (§2) Fluorescence competitive binding assays were performed on Tecan Spark 10M (Tecan Group Ltd., Männedorf, Switzerland) with the F96 Black ELIAS Plate (Sangon) ([Khuhro et al., 2017]; [Liu et al., 2017]). The solutions were excited at 337 nm and emission spectra were recorded between 390 and 490 nm. First, to test the binding constants of 1-NPN to the SfurOBPs, a 2.0 µM solution of protein in 50 mM Tris-HCl (pH = 7.4) was titrated with 1 mM 1-NPN to achieve virous concentrations. Next, the competitive binding of each odorant was measured using the 1-NPN as fluorescent reporter and odorant as competitor. The concentrations of protein and 1-NPN were both 2.0 µM, the odorant added after protein and 1-NPN added into the well of ELIAS Plate for 2 min. The final concentrations of each competitor were 2, 4, 6, 8, 10, 12, 14, 16, 18 and 20 µM. After 2 min of odorant added, the fluorescence intensity was measured and recorded. The volume of mixed solution in each well was maintained at 250 µL. Each interaction was performed in triplicates.
# (§3) GraphPad Prism 7.0 software (GraphPad Software, Inc., La Jolla, CA, USA) was used to calculated and generated the binding constants (K1−NPN) of 1-NPN to SfurOBPs and relative Scatchard plots ([Ban et al., 2003]; [Li et al., 2016]). Dissociation constant (Ki) of each odorant to SfurOBP was computed from the corresponding IC50 value (the half maximal inhibitory concentration), using the following equation: Ki=[IC50]/(1 + [1-NPN]/K1−NPN), where [1-NPN] is the free concentration of 1-NPN and K1−NPN is the dissociation constant of the complex protein/1-NPN.
# [2] = target: SfurOBP3 (Sogatella furcifera, UniProt V5T818); details: OBP3, three replicate columns
# Sequence of SfurOBP3 (V5T818 entry or part of it): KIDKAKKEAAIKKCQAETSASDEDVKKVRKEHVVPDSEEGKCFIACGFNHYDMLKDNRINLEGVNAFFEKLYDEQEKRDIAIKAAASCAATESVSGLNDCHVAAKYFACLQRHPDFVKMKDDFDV
# Procedure: as §1, §2, §3
# [3] = target: SfurOBP2 (Sogatella furcifera, UniProt V5T759)
# Sequence of SfurOBP2 (V5T759 entry or part of it): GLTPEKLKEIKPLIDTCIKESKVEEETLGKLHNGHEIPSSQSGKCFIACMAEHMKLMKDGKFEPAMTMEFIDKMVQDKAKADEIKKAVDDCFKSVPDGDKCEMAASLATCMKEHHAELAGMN
# Procedure: as §1, §2, §3
# [4] = target: SfurOBP1 (Sogatella furcifera, UniProt V5T8N5); details: OBP1, three replicate columns
# Sequence of SfurOBP1 (V5T8N5 entry or part of it): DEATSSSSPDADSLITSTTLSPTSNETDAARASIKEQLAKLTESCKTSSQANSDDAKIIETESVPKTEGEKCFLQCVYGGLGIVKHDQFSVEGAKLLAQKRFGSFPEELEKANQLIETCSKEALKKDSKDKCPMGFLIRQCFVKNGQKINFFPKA
# Procedure: as §1, §2, §3
# Sequence of SfurOBP11 (V5T6E3 entry or part of it): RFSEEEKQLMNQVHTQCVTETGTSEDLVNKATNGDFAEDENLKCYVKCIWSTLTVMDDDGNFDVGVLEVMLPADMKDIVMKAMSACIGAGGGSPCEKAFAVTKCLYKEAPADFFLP
smiles,measurement,setting,value
CC(C)COC(=O)CCCCC(=O)OCC(C)C [DA(diisobutyl adipate)],"Fluorescence intensity, fluorescence competitive binding assay, OBP11","[1]; ligand concentration 2, replicate 1",28052
same,"Fluorescence intensity, fluorescence competitive binding assay, OBP11","[1]; ligand concentration 2, replicate 2",24884
same,"Fluorescence intensity, fluorescence competitive binding assay, OBP11","[1]; ligand concentration 2, replicate 3",25998
same,"Fluorescence intensity, fluorescence competitive binding assay, OBP11","[1]; ligand concentration 4, replicate 1",25234
same,"Fluorescence intensity, fluorescence competitive binding assay, OBP11","[1]; ligand concentration 4, replicate 2",27203
same,"Fluorescence intensity, fluorescence competitive binding assay, OBP11","[1]; ligand concentration 4, replicate 3",25942
same,"Fluorescence intensity, fluorescence competitive binding assay, OBP11","[1]; ligand concentration 6, replicate 1",26005
same,"Fluorescence intensity, fluorescence competitive binding assay, OBP11","[1]; ligand concentration 6, replicate 2",24895
same,"Fluorescence intensity, fluorescence competitive binding assay, OBP11","[1]; ligand concentration 6, replicate 3",23079
same,"Fluorescence intensity, fluorescence competitive binding assay, OBP11","[1]; ligand concentration 8, replicate 1",23239
same,"Fluorescence intensity, fluorescence competitive binding assay, OBP11","[1]; ligand concentration 8, replicate 2",23328
same,"Fluorescence intensity, fluorescence competitive binding assay, OBP11","[1]; ligand concentration 8, replicate 3",24337
same,"Fluorescence intensity, fluorescence competitive binding assay, OBP11","[1]; ligand concentration 10, replicate 1",23466
same,"Fluorescence intensity, fluorescence competitive binding assay, OBP11","[1]; ligand concentration 10, replicate 2",24012
same,"Fluorescence intensity, fluorescence competitive binding assay, OBP11","[1]; ligand concentration 10, replicate 3",22919
same,"Fluorescence intensity, fluorescence competitive binding assay, OBP11","[1]; ligand concentration 12, replicate 1",20499
same,"Fluorescence intensity, fluorescence competitive binding assay, OBP11","[1]; ligand concentration 12, replicate 2",21796
same,"Fluorescence intensity, fluorescence competitive binding assay, OBP11","[1]; ligand concentration 12, replicate 3",19860
same,"Fluorescence intensity, fluorescence competitive binding assay, OBP11","[1]; ligand concentration 14, replicate 1",20110
same,"Fluorescence intensity, fluorescence competitive binding assay, OBP11","[1]; ligand concentration 14, replicate 2",20124
same,"Fluorescence intensity, fluorescence competitive binding assay, OBP11","[1]; ligand concentration 14, replicate 3",20151
same,"Fluorescence intensity, fluorescence competitive binding assay, OBP11","[1]; ligand concentration 16, replicate 1",18498
same,"Fluorescence intensity, fluorescence competitive binding assay, OBP11","[1]; ligand concentration 16, replicate 2",20828
same,"Fluorescence intensity, fluorescence competitive binding assay, OBP11","[1]; ligand concentration 16, replicate 3",20812
same,"Fluorescence intensity, fluorescence competitive binding assay, OBP11","[1]; ligand concentration 18, replicate 1",20721
same,"Fluorescence intensity, fluorescence competitive binding assay, OBP11","[1]; ligand concentration 18, replicate 2",21669
same,"Fluorescence intensity, fluorescence competitive binding assay, OBP11","[1]; ligand concentration 18, replicate 3",21849
same,"Fluorescence intensity, fluorescence competitive binding assay, OBP11","[1]; ligand concentration 20, replicate 1",20792
same,"Fluorescence intensity, fluorescence competitive binding assay, OBP11","[1]; ligand concentration 20, replicate 2",21117
same,"Fluorescence intensity, fluorescence competitive binding assay, OBP11","[1]; ligand concentration 20, replicate 3",20999
same,"Fluorescence competitive binding assay, fluorescence intensity",[2]; ligand concentration 2,60413 and 65968 and 63200
same,"Fluorescence competitive binding assay, fluorescence intensity",[2]; ligand concentration 4,61250 and 61185 and 61320
same,"Fluorescence competitive binding assay, fluorescence intensity",[2]; ligand concentration 6,60246 and 58949 and 59593
same,"Fluorescence competitive binding assay, fluorescence intensity",[2]; ligand concentration 8,52502 and 56703 and 49181
same,"Fluorescence competitive binding assay, fluorescence intensity",[2]; ligand concentration 10,59611 and 55127 and 57362
same,"Fluorescence competitive binding assay, fluorescence intensity",[2]; ligand concentration 12,47975 and 49504 and 49931
same,"Fluorescence competitive binding assay, fluorescence intensity",[2]; ligand concentration 14,42590 and 46739 and 44665
same,"Fluorescence competitive binding assay, fluorescence intensity",[2]; ligand concentration 16,36927 and 42551 and 39754
same,"Fluorescence competitive binding assay, fluorescence intensity",[2]; ligand concentration 18,35693 and 43209 and 41553
same,"Fluorescence competitive binding assay, fluorescence intensity",[2]; ligand concentration 20,42100 and 41400 and 42823
same,"Fluorescence competitive binding assay, OBP2 (raw fluorescence reading)","[3]; ligand concentration 2 (unit not given), replicate column 1 of 3",18255
same,"Fluorescence competitive binding assay, OBP2 (raw fluorescence reading)","[3]; ligand concentration 2 (unit not given), replicate column 2 of 3",18056
same,"Fluorescence competitive binding assay, OBP2 (raw fluorescence reading)","[3]; ligand concentration 2 (unit not given), replicate column 3 of 3",17857
same,"Fluorescence competitive binding assay, OBP2 (raw fluorescence reading)","[3]; ligand concentration 4 (unit not given), replicate column 1 of 3",17231
same,"Fluorescence competitive binding assay, OBP2 (raw fluorescence reading)","[3]; ligand concentration 4 (unit not given), replicate column 2 of 3",17998
same,"Fluorescence competitive binding assay, OBP2 (raw fluorescence reading)","[3]; ligand concentration 4 (unit not given), replicate column 3 of 3",18274
same,"Fluorescence competitive binding assay, OBP2 (raw fluorescence reading)","[3]; ligand concentration 6 (unit not given), replicate column 1 of 3",16096
same,"Fluorescence competitive binding assay, OBP2 (raw fluorescence reading)","[3]; ligand concentration 6 (unit not given), replicate column 2 of 3",17472
same,"Fluorescence competitive binding assay, OBP2 (raw fluorescence reading)","[3]; ligand concentration 6 (unit not given), replicate column 3 of 3",18707
same,"Fluorescence competitive binding assay, OBP2 (raw fluorescence reading)","[3]; ligand concentration 8 (unit not given), replicate column 1 of 3",16149
same,"Fluorescence competitive binding assay, OBP2 (raw fluorescence reading)","[3]; ligand concentration 8 (unit not given), replicate column 2 of 3",16678
same,"Fluorescence competitive binding assay, OBP2 (raw fluorescence reading)","[3]; ligand concentration 8 (unit not given), replicate column 3 of 3",16908
same,"Fluorescence competitive binding assay, OBP2 (raw fluorescence reading)","[3]; ligand concentration 10 (unit not given), replicate column 1 of 3",15320
same,"Fluorescence competitive binding assay, OBP2 (raw fluorescence reading)","[3]; ligand concentration 10 (unit not given), replicate column 2 of 3",15081
same,"Fluorescence competitive binding assay, OBP2 (raw fluorescence reading)","[3]; ligand concentration 10 (unit not given), replicate column 3 of 3",16366
same,"Fluorescence competitive binding assay, OBP2 (raw fluorescence reading)","[3]; ligand concentration 12 (unit not given), replicate column 1 of 3",14706
same,"Fluorescence competitive binding assay, OBP2 (raw fluorescence reading)","[3]; ligand concentration 12 (unit not given), replicate column 2 of 3",15645
same,"Fluorescence competitive binding assay, OBP2 (raw fluorescence reading)","[3]; ligand concentration 12 (unit not given), replicate column 3 of 3",15214
same,"Fluorescence competitive binding assay, OBP2 (raw fluorescence reading)","[3]; ligand concentration 14 (unit not given), replicate column 1 of 3",14108
same,"Fluorescence competitive binding assay, OBP2 (raw fluorescence reading)","[3]; ligand concentration 14 (unit not given), replicate column 2 of 3",14696
same,"Fluorescence competitive binding assay, OBP2 (raw fluorescence reading)","[3]; ligand concentration 14 (unit not given), replicate column 3 of 3",15283
same,"Fluorescence competitive binding assay, OBP2 (raw fluorescence reading)","[3]; ligand concentration 16 (unit not given), replicate column 1 of 3",14285
same,"Fluorescence competitive binding assay, OBP2 (raw fluorescence reading)","[3]; ligand concentration 16 (unit not given), replicate column 2 of 3",14484
same,"Fluorescence competitive binding assay, OBP2 (raw fluorescence reading)","[3]; ligand concentration 16 (unit not given), replicate column 3 of 3",14085
same,"Fluorescence competitive binding assay, OBP2 (raw fluorescence reading)","[3]; ligand concentration 18 (unit not given), replicate column 1 of 3",14063
same,"Fluorescence competitive binding assay, OBP2 (raw fluorescence reading)","[3]; ligand concentration 18 (unit not given), replicate column 2 of 3",14665
same,"Fluorescence competitive binding assay, OBP2 (raw fluorescence reading)","[3]; ligand concentration 18 (unit not given), replicate column 3 of 3",14360
same,"Fluorescence competitive binding assay, OBP2 (raw fluorescence reading)","[3]; ligand concentration 20 (unit not given), replicate column 1 of 3",13793
same,"Fluorescence competitive binding assay, OBP2 (raw fluorescence reading)","[3]; ligand concentration 20 (unit not given), replicate column 2 of 3",14314
same,"Fluorescence competitive binding assay, OBP2 (raw fluorescence reading)","[3]; ligand concentration 20 (unit not given), replicate column 3 of 3",13272
same,"Fluorescence competitive binding assay, fluorescence intensity",[4]; ligand concentration 2 (μM),6756 and 5373 and 6005
same,"Fluorescence competitive binding assay, fluorescence intensity",[4]; ligand concentration 4 (μM),6244 and 6492 and 6739
same,"Fluorescence competitive binding assay, fluorescence intensity",[4]; ligand concentration 6 (μM),6349 and 5828 and 6089
same,"Fluorescence competitive binding assay, fluorescence intensity",[4]; ligand concentration 8 (μM),6071 and 5880 and 6063
same,"Fluorescence competitive binding assay, fluorescence intensity",[4]; ligand concentration 10 (μM),6080 and 6185 and 6121
same,"Fluorescence competitive binding assay, fluorescence intensity",[4]; ligand concentration 12 (μM),5959 and 5941 and 5922
same,"Fluorescence competitive binding assay, fluorescence intensity",[4]; ligand concentration 14 (μM),6211 and 5589 and 5885
same,"Fluorescence competitive binding assay, fluorescence intensity",[4]; ligand concentration 16 (μM),6060 and 6168 and 5508
same,"Fluorescence competitive binding assay, fluorescence intensity",[4]; ligand concentration 18 (μM),6493 and 6572 and 6293
same,"Fluorescence competitive binding assay, fluorescence intensity",[4]; ligand concentration 20 (μM),7139 and 6435 and 6856
